Experimental findings from US9803187B2 (priority 2014, dated 2017) are described below.

Like-named read-outs stand apart in the source and are kept apart here.

Assay [1] deals with T1, SbnE (Staphylococcus aureus, UniProt Q2G1M9). Kind of assay: biochemical.
The target of assay [2] is T2, AsbA (Bacillus anthracis, UniProt A0A0F7RJ52). Kind of assay: biochemical.
The next assay deals with AsbB (Bacillus anthracis, UniProt Q81RQ8). The assay is described as follows: biochemical. The class given is biochemical.
A further assay concerns S. aureus (Newman). The assay is described as follows: microbe, parasite or virus in culture. The class given is cell-based. As to conditions: for IC50: Staphylococcus aureus, NEWMAN, 8 h.
Assay [3] relates to B. anthracis (Sterne 34F2). Kind of assay: microbe, parasite or virus in culture. The format is cell-based. The conditions noted are these: for IC50: Bacillus anthracis.
Assay [4] deals with T1, SbnE. The assay is described as follows: biochemical. The format is biochemical, S. aureus. The conditions noted are these: for Ki: inhibition constant (Ki) SbnE.
For assay [5], the target named is T2, AsbA. Kind of assay: biochemical. The format is biochemical, B. anthracis. As to conditions: for Ki: inhibition constant (Ki) AsbA.
The subject of a further assay is MRSA (USA 300). Kind of assay: microbe, parasite or virus in culture. The class given is cell-based, methicillin-resistant Staphylococcus aureus. The conditions noted are these: Staphylococcus aureus.
The test system of a further assay is S. typhimurium. Kind of assay: microbe, parasite or virus in culture. The class given is cell-based. The conditions noted are these: Salmonella enterica.
The test system of the next assay is E. coli (MC 1061). The assay is described as follows: microbe, parasite or virus in culture. The format is cell-based. The conditions noted are these: Escherichia coli.
The next assay deals with S. flexneri (BS103). The assay is described as follows: microbe, parasite or virus in culture. The format is cell-based. As to conditions: Shigella flexneri.

T1 sequence (Q2G1M9 whole entry): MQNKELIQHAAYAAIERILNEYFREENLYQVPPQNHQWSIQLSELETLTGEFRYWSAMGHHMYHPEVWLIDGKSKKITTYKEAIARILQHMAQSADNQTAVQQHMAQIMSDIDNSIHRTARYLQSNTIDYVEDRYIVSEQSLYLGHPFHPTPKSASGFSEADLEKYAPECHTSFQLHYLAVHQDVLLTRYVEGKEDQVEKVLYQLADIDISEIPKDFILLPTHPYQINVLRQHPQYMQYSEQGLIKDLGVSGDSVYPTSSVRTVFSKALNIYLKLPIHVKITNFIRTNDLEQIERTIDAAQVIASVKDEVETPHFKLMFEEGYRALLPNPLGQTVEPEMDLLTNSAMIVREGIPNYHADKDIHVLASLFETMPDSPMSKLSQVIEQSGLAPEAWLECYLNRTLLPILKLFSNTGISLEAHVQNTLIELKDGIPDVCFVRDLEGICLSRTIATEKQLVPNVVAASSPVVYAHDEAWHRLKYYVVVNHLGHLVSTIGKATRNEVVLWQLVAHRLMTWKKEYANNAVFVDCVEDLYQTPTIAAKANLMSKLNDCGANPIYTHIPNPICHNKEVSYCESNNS
Sequence of AsbB (Q81RQ8 whole entry, looked up): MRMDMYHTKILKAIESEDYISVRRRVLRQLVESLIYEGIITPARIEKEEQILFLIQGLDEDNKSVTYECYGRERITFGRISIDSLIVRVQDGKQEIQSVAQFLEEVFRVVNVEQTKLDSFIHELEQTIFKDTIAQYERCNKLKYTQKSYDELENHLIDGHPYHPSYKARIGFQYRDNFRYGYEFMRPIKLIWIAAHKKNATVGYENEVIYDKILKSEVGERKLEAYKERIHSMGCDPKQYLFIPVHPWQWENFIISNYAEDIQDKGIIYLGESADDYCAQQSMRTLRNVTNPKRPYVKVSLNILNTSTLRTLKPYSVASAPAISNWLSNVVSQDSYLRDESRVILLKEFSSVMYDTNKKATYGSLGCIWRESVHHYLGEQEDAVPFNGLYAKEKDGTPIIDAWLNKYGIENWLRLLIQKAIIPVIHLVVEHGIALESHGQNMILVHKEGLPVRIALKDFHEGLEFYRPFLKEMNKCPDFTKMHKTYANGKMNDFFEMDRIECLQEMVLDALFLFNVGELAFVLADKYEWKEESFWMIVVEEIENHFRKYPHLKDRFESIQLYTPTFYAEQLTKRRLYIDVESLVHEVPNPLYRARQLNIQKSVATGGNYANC
T2 sequence (A0A0F7RJ52 whole entry, looked up): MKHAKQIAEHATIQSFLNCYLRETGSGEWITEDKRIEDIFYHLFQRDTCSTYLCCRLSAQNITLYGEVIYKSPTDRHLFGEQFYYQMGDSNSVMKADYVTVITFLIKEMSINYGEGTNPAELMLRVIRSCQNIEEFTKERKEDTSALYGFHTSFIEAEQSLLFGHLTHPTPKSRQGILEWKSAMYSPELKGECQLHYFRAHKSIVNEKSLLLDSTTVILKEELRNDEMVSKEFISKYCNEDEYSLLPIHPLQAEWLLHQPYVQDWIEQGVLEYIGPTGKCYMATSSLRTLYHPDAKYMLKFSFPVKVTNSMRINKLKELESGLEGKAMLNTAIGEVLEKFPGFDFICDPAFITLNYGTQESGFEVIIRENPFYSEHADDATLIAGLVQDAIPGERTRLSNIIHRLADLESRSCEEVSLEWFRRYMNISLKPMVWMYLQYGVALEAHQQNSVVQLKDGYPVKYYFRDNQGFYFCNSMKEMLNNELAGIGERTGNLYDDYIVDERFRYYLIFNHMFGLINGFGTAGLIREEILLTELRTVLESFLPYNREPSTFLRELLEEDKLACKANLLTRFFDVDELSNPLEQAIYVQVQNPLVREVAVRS

The term IC50 denotes the concentration at which inhibition is half-maximal. Consider `CC(=O)[C@@H](C)C[C@@H](C)C[C@@H](C)CC[C@H](O)C[C@H](O)[C@H](CC(C)C)[C@H](O)c1cc(O)cc(O)c1` [BmcB, Baulamycin B], for which the IC50 is 19 µM at SbnE [1], 200 µM on AsbA [2] and greater than 1000 µM on AsbB. For the same molecule, the “inhibition against AsbB (in words)” value on AsbB was “negligible”. The “potency against S. aureus (Newman) compared with BmcA (in words)” value with S. aureus (Newman) is “significantly less potent”. In addition, the “potency against B. anthracis (Sterne 34F2) compared with BmcA (in words)” value in assay [3] is “significantly less potent”.

As usually defined, the Ki is the dissociation constant of the complex between target and ligand, obtained from inhibition or displacement. Lower therefore signals tighter binding. As to `CCC(=O)[C@@H](C)C[C@@H](C)C[C@@H](C)CC[C@H](O)C[C@H](O)[C@H](CC(C)C)[C@H](O)c1cc(O)cc(O)c1` [BmcA, Baulamycin A], the IC50 was 4.8 µM on SbnE [1]; 180 µM against AsbA [2]; greater than 1000 µM on AsbB; 69 µM with S. aureus (Newman) (read-out: IDM IC50); 86 µM in the assay on S. aureus (Newman) (read-out: IRM IC50); 130 µM in the assay with MRSA (USA 300) (read-out: IDM IC50). Further, the IC50 with MRSA (USA 300) (read-out: IRM IC50) is 130 µM; in assay [3] (read-out: IDM IC50), 110 µM; in assay [3] (read-out: IRM IC50), 120 µM; with S. typhimurium (read-out: IC50, iron-depleted conditions), greater than 1000 µM; with S. typhimurium (read-out: IC50, iron-rich conditions), greater than 1000 µM; in the assay on S. typhimurium (read-out: IDM IC50), greater than 1000 µM. In addition, the half-inhibitory concentration (IC50) was greater than 1000 µM in the assay on S. typhimurium (read-out: IRM IC50); 4.2 µM in the assay with E. coli (MC 1061) (read-out: IDM IC50); 150 µM with E. coli (MC 1061) (read-out: IRM IC50); 20 µM in the assay on S. flexneri (BS103) (read-out: IDM IC50); 46 µM in the assay on S. flexneri (BS103) (read-out: IRM IC50). Moreover, the “inhibition against AsbB (in words)” value on AsbB is given as “negligible”. Also, the “mechanism of inhibition of SbnE” value on SbnE [4] is reported as “reversible, competitive”. In addition, the Ki worked out at 680 µM on SbnE [4] (ATP); 50 µM on SbnE [4] (citric acid); 210 µM at SbnE [4] (polyamine substrate); 230 µM at AsbA [5] (ATP); 110 µM at AsbA [5] (citric acid); 170 µM at AsbA [5] (polyamine substrate). The “mechanism of inhibition of AsbA” value at AsbA [5] is on record as “reversible, competitive”.
